The values that follow come from PubChem BioAssay (NCI).

“And” between values parts separate entries of the source, which are not always exact repeats. Equal values may be shown once.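 Assay format: 96-well plates, 48-hour exposure. The concentration for 50% growth inhibition is given as GI50. TGI: concentration producing complete growth inhibition.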

Assay in all cases: growth of human tumour cells (NCI), 48 h
Test [1] has as its system SNB-75 CNS.
For test [2], the system named is HOP-62 NSCLC.
Test [3] concerns MCF7 breast.
Test [4] deals with RXF 393 renal.
The test system of test [5] is MOLT-4 leukemia.
The subject of test [6] is HS 578T breast.
Test [7] relates to ACHN renal.
Test [8] has as its system T-47D breast.

For the compound `COc1ccc([C@H]2O[C@@H](CO)C[C@]2(O)c2ccc(OC)cc2)cc1`, the GI50 in test [1] was above 100 µM; in test [2] it was above 100 µM; in test [3] it was above 100 µM; in test [4], 28.4 µM; in test [5] it was above 100 µM; in test [6] it was 39.5 µM. For the same compound, the GI50 in test [7] is above 100 µM. For the same compound, the TGI in test [1], in test [2], in test [3], in test [4], in test [5] and in test [6] was above 100 µM each time. Also, the TGI in test [7] is above 100 µM.
As to `Cn1c(=O)c2[nH]c(COc3ccc(C(C)(C)C)cc3)nc2n(C)c1=O`, the GI50 in test [8] was 11.9 µM; in test [2], 35.4 µM; in test [3] it was 17.1 µM; in test [4] it was 57 µM; in test [5], 3.94 µM; in test [6], 20.2 µM. Further, the GI50 in test [7] was 9.58 µM. Moreover, the TGI in test [8] is above 100 µM; in test [2], above 100 µM; in test [3], 62.8 µM; in test [4], above 100 µM; in test [5], 31.2 µM; in test [6] it was above 100 µM. Also, in test [7], the TGI was found to be 89.8 µM.
For the compound `COc1ccc(/C=C\c2cc(OC)c(OC)c(OC)c2)c(NS(=O)(=O)c2ccc(C)cc2)c1O`, the GI50 in test [8] is 21 µM; in test [1], 0.0304 µM; in test [2], 1.29 µM; in test [3], 0.0333 µM; in test [5], 0.0421 µM; in test [6], 0.0483 µM. Besides, the GI50 in test [7] was 0.0874 µM. Moreover, the TGI was above 100 µM in test [8]; above 100 µM in test [1]; above 100 µM in test [2]; above 39.2 µM in test [3]; above 62.9 µM in test [5]; above 100 µM in test [6]. The compound further showed a TGI in test [7] above 59.9 µM.
Regarding `O=c1[nH]c(-c2ccc(C(F)(F)F)cc2)nc2c1CSCC2`, the GI50 in test [8] was 23.7 µM; in test [1], 21.2 µM; in test [2], 17.5 µM; in test [3], above 100 µM; in test [4], 19.6 µM; in test [5], above 100 µM. Besides, the GI50 in test [6] is 45.8 µM; in test [7], 32.9 µM. For the same compound, the TGI is 98.1 µM in test [8]; 56.2 µM in test [1]; 51.2 µM in test [2]; above 100 µM in test [3]; 65.8 µM in test [4]; above 100 µM in test [5]. In addition, the TGI in test [6] and in test [7] was above 100 µM each time.
For the compound `Cc1nc(NC(=O)N2CCC[C@H]2C(N)=O)sc1-c1ccnc(C(C)(C)C(F)(F)F)c1`, the GI50 is 0.0412 µM and 0.0507 µM in test [8]; 0.594 µM in test [1]; 8.06 µM and > 10 µM in test [2]; 0.12 µM and 0.296 µM in test [3]; 2.78 µM and 3.45 µM in test [4]; 2.49 µM and 2.94 µM in test [5]. Further, the GI50 in test [7] is 5.6 µM and > 10 µM. In addition, the TGI in test [8] is 1.79 µM and 0.599 µM; in test [1], 15.5 µM; in test [2], above 75.1 µM; in test [3] it was above 38.4 µM; in test [4] it was 17.3 µM and > 10 µM; in test [5], 28.2 µM and > 10 µM. Further, the TGI is 21.2 µM and 3.1 µM in test [6]; above 100 µM in test [7].
Regarding `C#Cc1ccc(NC(=O)c2ccc(/C=C/C(=O)c3nccn3C)cc2)cc1`, the GI50 in test [8] is 0.521 µM; in test [1], 0.344 µM; in test [2] it was 0.612 µM; in test [3] it was 0.3 µM; in test [4], 0.408 µM; in test [5], 0.582 µM. The GI50 in test [6] was 0.853 µM; in test [7], 0.445 µM. For the same compound, the TGI in test [8] was found to be 2.44 µM; in test [1] it was 0.809 µM; in test [2], 1.65 µM; in test [3], 1.09 µM; in test [4] it was 0.796 µM; in test [5], 1.54 µM. The results for the TGI in test [6] and in test [7] were 11.9 µM and 0.839 µM, respectively.
As to `CC1OC(O)C(O)C(O)C1O` (stereo not given), the TGI in test [8], in test [1], in test [2], in test [3], in test [4] and in test [6] was above 100 µM in each case. For the same compound, the TGI in test [7] is above 100 µM.
With `COc1ccc(C(O)c2cc3c(N)c(C(=O)Nc4cccc(Br)c4)sc3nc2C)cc1` (stereo not given), the GI50 was 22.5 µM in test [8]; 0.0693 µM in test [1]; 0.207 µM in test [2]; 0.125 µM in test [3]; 0.14 µM in test [5]; 0.101 µM in test [6]. The GI50 in test [7] was 0.23 µM. The TGI is above 100 µM in test [8]; above 42.2 µM in test [2]; above 58.4 µM in test [3]; above 52.8 µM in test [5]; above 21.7 µM in test [6]; above 46.2 µM in test [7].
As for `CC(=O)/C(C)=N/N/C(N)=N\S(=O)(=O)c1cc(C(=O)Nc2ccccc2)c(Cl)cc1SCc1ccccc1`, the GI50 was above 100 µM in test [8]; above 100 µM in test [1]; 0.0554 µM in test [2]; 76.7 µM in test [3]; 3.73 µM in test [5]; above 100 µM in test [6]. In addition, the GI50 in test [7] is 7.89 µM. Further, the TGI is above 100 µM in test [8]; above 100 µM in test [1]; 0.385 µM in test [2]; above 100 µM in test [3]; 56.3 µM in test [5]; above 100 µM in test [6]. The same compound came in with a TGI in test [7] above 100 µM.
Regarding `c1ccc(-c2nc(N3CCNCC3)c3nc(-c4ccccc4)oc3n2)cc1`, the GI50 in test [1] is 1.26 µM; in test [2], 1.98 µM; in test [3], 1.7 µM; in test [4], 1.83 µM; in test [6], 1.87 µM; in test [7], 1.71 µM. Moreover, the TGI in test [1] is 2.52 µM; in test [2], 3.94 µM; in test [3], 3.58 µM; in test [4] it was 3.48 µM; in test [6], 4.11 µM; in test [7], 3.09 µM.
